Test results reported in patent publication US20160113931A1, “Method of treating and/or preventing neurodegenerative diseases” (University of Macau, priority 2014, published 2016).
Entries after “also recorded” stand apart in the source; their conditions may differ.

Key:
[1] = tested on: oligodendroglial progenitor cells (OPCs); assay: Hydrogen peroxide-induced OPC death (MTT assay); type: cell-based, rat; conditions: 30 μM, 200 μM hydrogen peroxide 6 h
Experimental: OPCs were incubated with 30 μM BHDPC or 0.1% DMSO (vehicle control) for 2 h followed by the addition or not of 200 μM H2O2 for a further 6 h (FIG. 11A) or LPS (FIG. 11B) for 24 h.
The percentage of surviving cells was estimated by determining the activity of mitochondrial dehydrogenases with 3(4,5-dimethylthiazol-2-yl)-2,5-diphenyltetrazolium bromide (MTT) assay. After drug treatment, cells were incubated at 37° C. for 4 h in 0.5 mg/mL MTT solution. The medium was then removed, and 100 μL of DMSO was added to each well to dissolve the violet formazan crystals. The absorbance of the samples was measured at a wavelength of 570 nm with 655 nm as a reference wavelength. All values were normalized to the control groups.
Purified OPC cultures were prepared as described. In brief, primary rat mixed glial cell cultures were isolated from whole brains of postnatal day (P) 2 rats, dissociated into single cells, and cultured into poly-D-lysine (PDL) coated T75 tissue culture flasks. Plating medium consisted of Dulbecco's modified Eagle's medium (DMEM, Invitrogen, Carlsbad, Calif.) supplemented with 10% fetal bovine serum (FBS; Invitrogen, Carlsbad, Calif.), […]. Tissue cultures were maintained at 37° C. in a humidified 5% CO2 incubator, and medium was exchanged every 3 days. […]

SH-SY5Y cells [2] = assay: MPP+-induced LDH leakage in SH-SY5Y cells (LDH assay); type: cell-based, human; conditions: 2 h pre-treatment, MPP+ 36 h, MPP+ alone 209%, normalized to control
Experimental: Cells were pre-treated with BHDPC (3, 10 and 30 μM) for 2 h and then incubated with or without 1 mM MPP^+ for further 24 h. Cell viability was measured by the MTT assay.
Cell cytotoxicity was also determined by measuring the activity of LDH released into the incubation medium when cellular membranes were damaged. Cells were seeded at 96-well plates (5×10^3 cells/well). After treatment, the released LDH activity in the medium was measured according to the instructions of the Cytotoxicity Detection Kit (Roche Applied Science, Mannheim, Germany). Absorbance at 490 nm was measured using SpectraMax M5. All values of LDH released were normalized to the control group.
The protective activity of BHDPC was also confirmed by the lactate dehydrogenase (LDH) assay. SH-SY5Y cells were treated with BHDPC for 2 h before exposed to MPP^+ for 36 h.

SH-SY5Y cells [3] = assay: Effect of PKA inhibitor H89 on BHDPC neuroprotection under MPP+ cytotoxicity; type: cell-based, human; conditions: with H89
Source text: To further confirm the involvement of PKA activation in the protective effects of BHDPC, H89, a PKA inhibitor was used to measure cell survival under MPP^+ cytotoxicity (FIG. 9).

SH-SY5Y cells [4] = assay: MPP+-induced mitochondrial membrane potential loss (JC-1 assay); type: cell-based, human; conditions: 2 h pre-treatment; for mitochondrial membrane potential (Δφm) compared to the control group: 2 mM MPP+, MPP+ alone 51%
Experimental: (FIG. 6A) Δψm was determined by the JC-1 assay.
JC-1 dye was used to monitor mitochondrial integrity. In brief, SH-SY5Y cells were seeded into black 96-well plates (5×10^3 cells/well). After treatment, the cells were incubated with JC-1 (10 μg/mL in medium) at 37° C. for 15 min and then washed twice with PBS. For signal quantification, the intensity of red fluorescence (excitation 560 nm, emission 595 nm) and green fluorescence (excitation 485 nm, emission 535 nm) were determined using a SpectraMax M5. Mitochondrial membrane potential (Δφm) was calculated as the ratio of JC-1 red/green fluorescence intensity and the value was normalized to the control group.
Loss of mitochondrial membrane potential and apoptotic nuclei were hallmarks for early and late stage of apoptosis. To determine whether BHDPC could reduce MPP^+-induced mitochondrial membrane potential (Δφm) loss, the Δφm in SH-SY5Y cells was assessed by analyzing the red/green fluorescent intensity ratio of JC-1 staining (FIG. 6A).

caspase 3 = assay: Caspase 3 activity assay in SH-SY5Y cells; type: cell-based, human
Experimental: After pre-treatment with 30 μM BHDPC or 0.1% DMSO (vehicle control) for 2 h, SH-SY5Y cells were incubated with or without 2 mM MPP^+ for another 36 h. (FIG. 6A) Δψm was determined by the JC-1 assay.
After treatment, the activity of caspase 3 was measured using the commercially available EnzChek Caspase-3 Assay Kit (Invitrogen, USA) according to the manufacturer's protocol. Briefly, SH-SY5Y cells were lysed in lysis buffer and centrifuged at 12,500×g for 5 min. 15 μL of cell lysate was incubated with 50 μL of 2× substrate working solution at room temperature for 30 min in 96-well plates. The fluorescence intensity was then determined by a SpectraMax M5 microplate reader at an excitation wavelength of 490 nm and emission at 520 nm. The fluorescence intensity of each sample was normalized to the protein concentration of sample. All values of % caspase 3 activities were normalized to the control group.
Caspase 3 activation plays a key role in the execution-phase of the apoptosis.

ROCK1 = ROCK1 (Homo sapiens, UniProt Q13464); assay: Kinase activity assay ROCK1; type: biochemical
Chain of ROCK1 (Q13464 whole entry, species assumed, canonical isoform): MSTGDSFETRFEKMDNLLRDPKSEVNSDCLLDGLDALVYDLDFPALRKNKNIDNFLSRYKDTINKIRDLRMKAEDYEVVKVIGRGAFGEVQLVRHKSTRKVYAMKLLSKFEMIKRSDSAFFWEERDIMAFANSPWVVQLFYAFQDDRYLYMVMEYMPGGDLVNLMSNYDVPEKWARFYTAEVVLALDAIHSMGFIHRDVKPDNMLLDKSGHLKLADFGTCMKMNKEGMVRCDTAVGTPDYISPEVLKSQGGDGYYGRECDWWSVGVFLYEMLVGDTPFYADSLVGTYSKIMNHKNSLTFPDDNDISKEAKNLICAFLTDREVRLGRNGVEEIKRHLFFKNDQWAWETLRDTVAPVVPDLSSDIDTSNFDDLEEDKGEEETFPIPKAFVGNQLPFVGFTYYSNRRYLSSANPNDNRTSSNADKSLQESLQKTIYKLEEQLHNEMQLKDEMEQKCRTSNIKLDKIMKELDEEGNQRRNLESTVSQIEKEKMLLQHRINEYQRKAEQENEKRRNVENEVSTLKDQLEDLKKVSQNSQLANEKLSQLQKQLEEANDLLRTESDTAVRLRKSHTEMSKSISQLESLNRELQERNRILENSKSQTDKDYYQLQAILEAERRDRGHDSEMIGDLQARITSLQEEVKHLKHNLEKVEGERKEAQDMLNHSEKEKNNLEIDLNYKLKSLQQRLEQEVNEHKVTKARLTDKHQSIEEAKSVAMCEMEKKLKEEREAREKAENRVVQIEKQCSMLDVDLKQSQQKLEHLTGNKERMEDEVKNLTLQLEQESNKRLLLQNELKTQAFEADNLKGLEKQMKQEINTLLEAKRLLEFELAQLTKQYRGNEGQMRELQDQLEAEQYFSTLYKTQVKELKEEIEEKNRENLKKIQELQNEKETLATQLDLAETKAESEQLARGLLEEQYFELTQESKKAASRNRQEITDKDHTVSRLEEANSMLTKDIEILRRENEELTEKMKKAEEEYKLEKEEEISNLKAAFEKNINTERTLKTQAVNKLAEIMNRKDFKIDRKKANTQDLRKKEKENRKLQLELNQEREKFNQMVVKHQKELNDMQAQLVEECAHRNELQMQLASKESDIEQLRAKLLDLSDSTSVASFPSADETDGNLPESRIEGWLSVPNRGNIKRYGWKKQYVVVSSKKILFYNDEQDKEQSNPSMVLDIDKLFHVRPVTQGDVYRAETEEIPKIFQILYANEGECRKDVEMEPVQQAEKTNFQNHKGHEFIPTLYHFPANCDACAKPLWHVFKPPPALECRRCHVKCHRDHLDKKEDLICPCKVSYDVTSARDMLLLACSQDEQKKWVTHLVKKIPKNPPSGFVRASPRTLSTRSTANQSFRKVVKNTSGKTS
Source text: ROCK has two isoforms (ROCK1 and ROCK2) sharing the same downstream proteins. Bioassay and molecular docking are used to compare the characteristics of BHDPC on ROCK. […] Through molecular docking and molecular dynamics simulation, the interaction between the inhibitor and ROCK1 was shown in FIG. 17.

## COc1cc(C2C(C(=O)OCc3ccccc3)=C(C)Nc3nnnn32)ccc1O (stereo not shown) [BHDPC, benzyl 7-(4-hydroxy-3-methoxyphenyl)-5-methyl-4,7-dihydrotetrazolo[1,5-a]pyrimidine-6-carboxylate]
[1]
  hydrogen peroxide-induced cell death: dramatically attenuated
SH-SY5Y cells [2]; 3 μM
  MPP+-induced LDH leakage: 200%
SH-SY5Y cells [2]; 10 μM
  MPP+-induced LDH leakage: 184%
SH-SY5Y cells [2]; 30 μM
  MPP+-induced LDH leakage: 170%
SH-SY5Y cells [3]
  neuroprotective effect of BHDPC in presence of PKA inhibitor H89: abolished
SH-SY5Y cells [4]; 3 μM
  mitochondrial membrane potential (Δφm) compared to the control group: 53%
SH-SY5Y cells [4]; 10 μM
  mitochondrial membrane potential (Δφm) compared to the control group: 64%
SH-SY5Y cells [4]; 30 μM, 2 mM MPP+ 36 h
  MPP+-induced mitochondrial membrane potential (Δψm) loss, in words: attenuated
SH-SY5Y cells [4]; 30 μM
  mitochondrial membrane potential (Δφm) compared to the control group: 75%
Caspase 3; 30 μM pre-treatment, 2 mM MPP+ 36 h
  MPP+-induced caspase 3 activation: significantly reduced; also recorded: attenuated
Caspase 3; BHDPC alone, without MPP+
  caspase 3 activity: did not affect caspase 3 activity
ROCK1; from IC50 values
  affinity ROCK1 versus ROCK2: better affinity for ROCK1 than ROCK2
ROCK1; kinase activity assay
  IC50: 13.7 µM
